Measured values: ChEMBL document CHEMBL1201862, “PubChem BioAssay data set” (2004)
Activity calls are given as the source filed them.

Key:
[1] = target: Alkaline phosphatase, placental type (Homo sapiens, UniProt P05187); experiment: human placental alkaline phosphatase inhibition – biochemical, luminescence, confirmation (AID 1512); format: functional
[2] = target: T1, Alkaline phosphatase, tissue-nonspecific isozyme (Homo sapiens, UniProt P05186); experiment: potency against alkaline phosphatase TNAP – biochemical, luminescent, dose response, SAR follow-up (AID 1056)
T1 sequence (P05186 whole entry): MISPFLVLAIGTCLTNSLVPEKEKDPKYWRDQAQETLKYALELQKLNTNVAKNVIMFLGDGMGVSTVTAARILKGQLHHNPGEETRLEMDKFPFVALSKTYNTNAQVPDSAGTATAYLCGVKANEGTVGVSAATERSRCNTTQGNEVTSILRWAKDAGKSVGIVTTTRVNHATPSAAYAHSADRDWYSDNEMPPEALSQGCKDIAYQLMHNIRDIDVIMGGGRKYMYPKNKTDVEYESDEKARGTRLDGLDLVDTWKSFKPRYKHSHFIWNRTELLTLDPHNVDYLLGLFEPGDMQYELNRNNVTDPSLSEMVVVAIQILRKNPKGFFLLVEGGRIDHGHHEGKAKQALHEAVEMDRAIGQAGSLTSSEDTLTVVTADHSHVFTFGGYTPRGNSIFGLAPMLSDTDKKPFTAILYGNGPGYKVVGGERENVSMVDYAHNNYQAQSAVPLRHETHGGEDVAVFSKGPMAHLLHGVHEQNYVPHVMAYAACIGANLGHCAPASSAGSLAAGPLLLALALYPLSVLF

Vero [3] = experiment: Vero 76 cell viability after compound exposure – Vero 76 cells, synthesized analogs, cytotoxicity control for West Nile virus antiviral project, SAR follow-up (AID 2414); format: functional, Chlorocebus sabaeus; details: Chlorocebus sabaeus, Vero
Vero [4] = experiment: Vero cell viability after compound exposure – synthesized analogs, set II, cytotoxicity control for West Nile virus antiviral project, SAR follow-up (AID 2402); format: functional, Chlorocebus sabaeus; details: Chlorocebus sabaeus, Vero
Vero [5] = experiment: host cell viability loss, Vero E6 – synthesized analogs, cytotoxicity control for West Nile virus antiviral project, SAR follow-up (AID 2244); format: functional; details: Chlorocebus sabaeus
[6] = A Cell Based Assay for the Identification of Probe candidate Compounds with Anti- Venezuelan Equine Encephalitis virus. [Related pubchem assays: 2409, 2419, 1621, 2238, 2405, 2024, 2065, 2402, 2414, 1635, 1650, 2244 ]; format: functional
[7] = target: T2, Ubiquitin-conjugating enzyme E2 N (Homo sapiens, UniProt P61088); format: functional;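 also: Dose-response confirmation in a TR-FRET assay detecting UBC13-driven polyubiquitin chain formation, inhibition measured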
T2 sequence (P61088 whole entry): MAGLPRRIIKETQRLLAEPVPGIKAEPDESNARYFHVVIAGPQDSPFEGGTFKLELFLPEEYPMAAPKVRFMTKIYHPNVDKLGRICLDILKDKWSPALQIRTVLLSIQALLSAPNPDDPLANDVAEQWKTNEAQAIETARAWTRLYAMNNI

[8] = target: DNA repair and recombination protein RAD54-like (Homo sapiens, UniProt Q92698); experiment: RAD54 Holliday junction migration blockers – biochemical, fluorescence, cherry-picked samples, dose series, confirmation (AID 651657); format: functional
Sequence of DNA repair and recombination protein RAD54-like (Q92698 whole entry): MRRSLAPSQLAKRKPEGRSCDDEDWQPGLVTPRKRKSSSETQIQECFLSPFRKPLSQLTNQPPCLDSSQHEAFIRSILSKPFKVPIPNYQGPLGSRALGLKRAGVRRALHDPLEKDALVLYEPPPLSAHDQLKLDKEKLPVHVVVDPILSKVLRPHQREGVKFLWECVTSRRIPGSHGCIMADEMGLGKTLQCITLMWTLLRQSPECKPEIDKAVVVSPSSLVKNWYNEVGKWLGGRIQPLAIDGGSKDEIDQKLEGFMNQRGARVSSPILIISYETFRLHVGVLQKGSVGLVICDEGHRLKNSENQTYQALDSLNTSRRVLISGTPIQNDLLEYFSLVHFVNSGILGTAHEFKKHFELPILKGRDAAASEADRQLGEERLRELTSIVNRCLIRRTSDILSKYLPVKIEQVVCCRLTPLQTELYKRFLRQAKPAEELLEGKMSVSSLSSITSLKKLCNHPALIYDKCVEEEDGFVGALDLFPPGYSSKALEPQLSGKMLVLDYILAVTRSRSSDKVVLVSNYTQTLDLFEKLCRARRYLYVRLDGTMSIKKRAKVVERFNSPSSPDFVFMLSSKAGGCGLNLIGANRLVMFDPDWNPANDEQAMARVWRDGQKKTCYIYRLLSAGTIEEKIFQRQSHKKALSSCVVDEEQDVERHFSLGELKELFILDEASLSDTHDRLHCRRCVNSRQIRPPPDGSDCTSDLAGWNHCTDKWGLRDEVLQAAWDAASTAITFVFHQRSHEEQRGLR

[9] = target: Glyceraldehyde-3-phosphate dehydrogenase (Homo sapiens, UniProt P04406)
Sequence of Glyceraldehyde-3-phosphate dehydrogenase (P04406 whole entry): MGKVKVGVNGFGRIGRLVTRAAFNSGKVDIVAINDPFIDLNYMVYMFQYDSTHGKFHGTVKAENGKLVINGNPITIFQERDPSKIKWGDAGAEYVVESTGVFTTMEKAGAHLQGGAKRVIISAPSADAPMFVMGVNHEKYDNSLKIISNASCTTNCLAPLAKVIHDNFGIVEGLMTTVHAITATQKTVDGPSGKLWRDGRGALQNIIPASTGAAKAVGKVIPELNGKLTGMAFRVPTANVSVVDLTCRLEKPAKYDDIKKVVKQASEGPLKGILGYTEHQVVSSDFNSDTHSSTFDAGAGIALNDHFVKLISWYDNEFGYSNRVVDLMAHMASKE

SUMO-activating enzyme = SUMO-activating enzyme (Homo sapiens, UniProt Q9UBT2); experiment: blockers of UBC9-mediated SUMO conjugation – biochemical, AlphaScreen, SUMOylation inhibitor project, confirmation (AID 2018); format: functional
Sequence of SUMO-activating enzyme (Q9UBE0 whole entry): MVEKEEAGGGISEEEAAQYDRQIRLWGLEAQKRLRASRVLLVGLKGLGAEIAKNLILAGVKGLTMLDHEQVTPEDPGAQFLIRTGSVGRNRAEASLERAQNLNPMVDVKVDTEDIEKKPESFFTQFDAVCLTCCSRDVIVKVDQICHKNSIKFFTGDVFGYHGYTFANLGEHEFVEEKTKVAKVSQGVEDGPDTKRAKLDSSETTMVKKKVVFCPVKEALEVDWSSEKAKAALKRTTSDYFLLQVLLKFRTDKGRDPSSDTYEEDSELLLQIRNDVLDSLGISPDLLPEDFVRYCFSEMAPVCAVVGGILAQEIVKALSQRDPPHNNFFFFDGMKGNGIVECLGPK
Sequence of SUMO-activating enzyme (Q9UBT2 whole entry): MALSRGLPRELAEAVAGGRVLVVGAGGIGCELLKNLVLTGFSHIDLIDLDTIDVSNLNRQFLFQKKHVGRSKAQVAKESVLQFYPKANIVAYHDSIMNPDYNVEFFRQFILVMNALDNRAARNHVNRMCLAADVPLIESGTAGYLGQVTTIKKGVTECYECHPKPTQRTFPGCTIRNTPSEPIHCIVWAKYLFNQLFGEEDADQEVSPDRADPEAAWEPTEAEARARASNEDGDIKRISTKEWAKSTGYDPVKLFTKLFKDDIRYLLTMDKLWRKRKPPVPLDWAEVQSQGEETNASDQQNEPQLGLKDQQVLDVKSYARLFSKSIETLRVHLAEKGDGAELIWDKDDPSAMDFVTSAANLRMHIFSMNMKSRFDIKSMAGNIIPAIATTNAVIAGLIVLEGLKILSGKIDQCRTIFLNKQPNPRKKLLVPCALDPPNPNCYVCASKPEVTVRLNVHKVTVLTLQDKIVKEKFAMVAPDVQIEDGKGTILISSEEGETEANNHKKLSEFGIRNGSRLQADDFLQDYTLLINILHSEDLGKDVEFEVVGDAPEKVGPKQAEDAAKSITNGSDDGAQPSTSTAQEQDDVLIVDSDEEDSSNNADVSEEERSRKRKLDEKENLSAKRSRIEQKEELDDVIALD

[10] = target: Induced myeloid leukemia cell differentiation protein Mcl-1 (Homo sapiens, UniProt Q07820); format: functional
Sequence of Induced myeloid leukemia cell differentiation protein Mcl-1 (Q07820 whole entry): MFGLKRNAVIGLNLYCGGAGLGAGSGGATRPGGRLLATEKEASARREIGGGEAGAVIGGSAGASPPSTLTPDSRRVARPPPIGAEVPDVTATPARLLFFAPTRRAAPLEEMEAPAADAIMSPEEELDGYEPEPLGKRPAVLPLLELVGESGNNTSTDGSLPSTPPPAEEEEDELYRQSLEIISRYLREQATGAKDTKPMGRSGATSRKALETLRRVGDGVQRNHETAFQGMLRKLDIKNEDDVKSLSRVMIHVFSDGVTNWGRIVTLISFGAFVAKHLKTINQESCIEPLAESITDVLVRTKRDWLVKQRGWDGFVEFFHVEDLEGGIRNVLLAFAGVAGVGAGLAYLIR

[11] = target: Glucose-6-phosphate 1-dehydrogenase (Homo sapiens, UniProt P11413); experiment: inhibition of Homo sapiens G6PD, dose series – biochemical, fluorescence, selectivity assay for P. falciparum G6PD inhibitor project, dose response (AID 504792); format: functional
Sequence of Glucose-6-phosphate 1-dehydrogenase (P11413 whole entry): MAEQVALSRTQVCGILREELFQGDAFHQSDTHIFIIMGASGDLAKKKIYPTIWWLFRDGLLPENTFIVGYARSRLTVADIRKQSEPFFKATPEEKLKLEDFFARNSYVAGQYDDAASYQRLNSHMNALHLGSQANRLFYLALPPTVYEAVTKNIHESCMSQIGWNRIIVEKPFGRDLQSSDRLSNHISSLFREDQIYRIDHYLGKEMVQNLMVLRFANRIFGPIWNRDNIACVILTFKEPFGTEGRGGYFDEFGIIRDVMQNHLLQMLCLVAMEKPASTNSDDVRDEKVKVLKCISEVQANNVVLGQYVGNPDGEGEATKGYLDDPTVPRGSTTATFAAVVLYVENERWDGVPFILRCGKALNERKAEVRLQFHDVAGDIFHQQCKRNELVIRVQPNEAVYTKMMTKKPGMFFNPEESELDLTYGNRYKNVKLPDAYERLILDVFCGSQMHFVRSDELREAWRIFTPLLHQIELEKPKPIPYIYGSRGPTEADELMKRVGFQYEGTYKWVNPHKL

Beta-galactosidase = Beta-galactosidase (Escherichia coli, UniProt Q8VNN2); experiment: detection-enzyme interference by beta-gal modulators – biochemical, E. coli enzyme, set 3, artefact control for CCR6 antagonist project, dose response (AID 504712); format: functional
Sequence of Beta-galactosidase (Q8VNN2 whole entry): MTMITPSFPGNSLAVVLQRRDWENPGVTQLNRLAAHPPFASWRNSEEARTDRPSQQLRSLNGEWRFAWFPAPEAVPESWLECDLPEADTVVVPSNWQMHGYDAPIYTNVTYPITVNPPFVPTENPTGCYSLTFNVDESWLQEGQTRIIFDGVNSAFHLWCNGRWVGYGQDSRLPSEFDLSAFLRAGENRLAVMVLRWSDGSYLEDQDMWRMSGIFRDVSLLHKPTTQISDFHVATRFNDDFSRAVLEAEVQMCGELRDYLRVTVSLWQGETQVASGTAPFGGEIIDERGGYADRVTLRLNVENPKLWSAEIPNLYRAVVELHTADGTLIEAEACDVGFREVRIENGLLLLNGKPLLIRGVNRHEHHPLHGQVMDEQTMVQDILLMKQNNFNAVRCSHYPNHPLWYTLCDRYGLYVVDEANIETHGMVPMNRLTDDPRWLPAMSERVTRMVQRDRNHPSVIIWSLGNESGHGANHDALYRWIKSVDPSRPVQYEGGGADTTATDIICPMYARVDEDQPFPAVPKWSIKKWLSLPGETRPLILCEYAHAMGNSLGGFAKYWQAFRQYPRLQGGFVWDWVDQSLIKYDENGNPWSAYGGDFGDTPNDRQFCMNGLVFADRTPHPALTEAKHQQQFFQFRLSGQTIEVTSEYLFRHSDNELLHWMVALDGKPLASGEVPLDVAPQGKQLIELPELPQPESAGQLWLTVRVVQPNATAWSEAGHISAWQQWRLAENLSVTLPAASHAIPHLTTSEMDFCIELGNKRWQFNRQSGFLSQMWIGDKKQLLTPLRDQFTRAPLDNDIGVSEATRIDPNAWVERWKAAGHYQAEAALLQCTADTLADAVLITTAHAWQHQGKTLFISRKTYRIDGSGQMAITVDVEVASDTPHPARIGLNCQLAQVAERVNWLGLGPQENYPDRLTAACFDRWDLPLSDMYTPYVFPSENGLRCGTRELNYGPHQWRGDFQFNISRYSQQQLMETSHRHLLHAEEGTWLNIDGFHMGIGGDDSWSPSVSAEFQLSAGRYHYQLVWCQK

[12] = target: Heat shock protein HSP 90-alpha (Homo sapiens, UniProt P07900); format: functional, organism-based
[13] = target: T3, RNA-binding protein pos-1 (Caenorhabditis elegans, UniProt G5EF15); experiment: disruptors of C. elegans POS-1 RNA interaction – biochemical, fluorescence polarization, dose response (AID 1964);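 also: purified POS-1 fused to maltose binding protein made in E. coli; potency of compounds blocking POS-1 binding to fluorescent RNA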
T3 sequence (G5EF15 whole entry): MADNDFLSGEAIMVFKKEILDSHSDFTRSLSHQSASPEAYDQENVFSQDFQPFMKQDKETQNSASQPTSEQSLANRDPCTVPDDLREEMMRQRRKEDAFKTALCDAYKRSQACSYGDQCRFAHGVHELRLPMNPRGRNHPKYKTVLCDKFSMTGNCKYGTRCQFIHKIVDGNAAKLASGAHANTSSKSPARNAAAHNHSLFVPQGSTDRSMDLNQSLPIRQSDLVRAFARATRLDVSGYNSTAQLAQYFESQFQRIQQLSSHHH

[14] = target: T4, Zinc finger protein mex-5 (Caenorhabditis elegans, UniProt Q9XUB2); experiment: potency of MEX-5 RNA-binding blockers – biochemical, C. elegans, fluorescence polarization, dose response (AID 1960)
T4 sequence (Q9XUB2 whole entry): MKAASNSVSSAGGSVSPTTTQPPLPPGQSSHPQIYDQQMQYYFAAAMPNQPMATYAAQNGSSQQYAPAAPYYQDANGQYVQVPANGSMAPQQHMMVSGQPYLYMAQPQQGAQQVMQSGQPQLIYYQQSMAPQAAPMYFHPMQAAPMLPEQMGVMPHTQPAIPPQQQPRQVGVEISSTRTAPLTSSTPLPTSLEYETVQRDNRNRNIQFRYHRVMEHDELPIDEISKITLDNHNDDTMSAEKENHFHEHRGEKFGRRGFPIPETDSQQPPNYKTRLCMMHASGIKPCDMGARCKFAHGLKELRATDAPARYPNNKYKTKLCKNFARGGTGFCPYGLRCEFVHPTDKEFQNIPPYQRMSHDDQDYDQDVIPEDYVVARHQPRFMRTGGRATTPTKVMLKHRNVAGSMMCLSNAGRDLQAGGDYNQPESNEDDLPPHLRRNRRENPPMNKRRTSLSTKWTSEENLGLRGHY

[15] = target: G-protein coupled receptor 55 (Homo sapiens, UniProt Q9Y2T6); experiment: selective activators of receptor GPR55 – imaging, U2OS cells, beta-arrestin-GFP redistribution, primary screen (AID 1961); format: functional
Sequence of G-protein coupled receptor 55 (Q9Y2T6 whole entry): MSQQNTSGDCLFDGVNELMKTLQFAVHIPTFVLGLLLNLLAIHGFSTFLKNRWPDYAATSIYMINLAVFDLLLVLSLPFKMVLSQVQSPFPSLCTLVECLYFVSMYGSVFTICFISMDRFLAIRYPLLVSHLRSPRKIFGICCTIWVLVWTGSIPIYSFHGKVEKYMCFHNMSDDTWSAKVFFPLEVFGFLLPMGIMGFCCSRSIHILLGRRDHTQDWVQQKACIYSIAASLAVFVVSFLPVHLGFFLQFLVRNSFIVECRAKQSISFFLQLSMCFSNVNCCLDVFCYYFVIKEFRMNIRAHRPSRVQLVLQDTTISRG

Sequence of Alkaline phosphatase, placental type (P05187 whole entry): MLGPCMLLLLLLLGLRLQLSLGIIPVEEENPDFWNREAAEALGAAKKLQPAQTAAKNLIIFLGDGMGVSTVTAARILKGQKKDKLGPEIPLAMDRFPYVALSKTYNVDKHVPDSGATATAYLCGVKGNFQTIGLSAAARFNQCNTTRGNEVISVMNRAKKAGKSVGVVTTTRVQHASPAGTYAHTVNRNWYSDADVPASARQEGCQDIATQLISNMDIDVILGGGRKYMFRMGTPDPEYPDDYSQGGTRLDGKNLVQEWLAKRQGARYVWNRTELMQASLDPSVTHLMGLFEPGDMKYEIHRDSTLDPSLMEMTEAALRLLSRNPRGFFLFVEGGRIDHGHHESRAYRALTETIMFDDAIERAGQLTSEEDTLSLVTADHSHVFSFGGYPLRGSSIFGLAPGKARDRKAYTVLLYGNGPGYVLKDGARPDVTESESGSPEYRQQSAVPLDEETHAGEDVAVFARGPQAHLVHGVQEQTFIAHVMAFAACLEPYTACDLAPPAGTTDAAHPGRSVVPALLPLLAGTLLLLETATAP

C=CCN1C(=O)NC2(O)C(=O)c3ccccc3C12O (centres undefined)
IC50 [1]: 12.7 µM (active) | IC50 [2]: 56.3 µM (active)

Cc1cccc2c1-c1sc(C(=O)NCCCN3CCCC(C)C3)cc1CO2 (centres undefined)
CC50 (Vero [3]): 19.4 µM (active) | CC50 (Vero [4]): 6.26 µM (active) | CC50 (Vero [5]): 4.45 µM (active) | IC50 [6]: 6 µM (active) | IC50 [7]: > 20 µM (inactive) | AC50 [8]: 90.1 µM (active)

CCCc1nn(C(C)=O)c2c1C(=O)CC(C)(C)C2
IC50 [9]: > 100 µM (not active) | IC50 [1]: > 100 µM (inactive) | IC50 [2]: 19.1 µM (active)

NC(=O)CC(NC(=O)Cc1ccc(Br)cc1)c1ccc(NCCc2ccccc2F)c([N+](=O)[O-])c1 (centres undefined)
IC50 (SUMO-activating enzyme): 78.2 µM (active)

Cc1ccc(NC(=O)c2cc(N3C(=O)C=CC3=O)ccc2Cl)cc1C
IC50 [10]: 5.4 µM (active) | IC50 [11]: 50 µM (inactive) | IC50 (Beta-galactosidase): > 66.6 µM (inactive) | AC50 [12]: 1.5 µM (active)

COc1cc2c(cc1OC)C(c1ccc(-c3ccc(Cl)cc3Cl)o1)=NCC2
EC50 [13]: > 300 µM (not active) | EC50 [14]: > 300 µM (not active) | EC50 [15]: > 32 µM (inactive)
